Columns and labels:
Long-term stability test = type: physicochemical
Description: The compositions of the present invention can be formulated into tablets which are packed in Aluminum-Aluminum blisters and subjected to stability studies according to ICH international guidelines (International Conference of Harmonization, Guideline for Industry, Stability Testing of New Drug Substances and Products. ICH Q1A (R2) February 2003).
Long-term stability studies were conducted on a batch from the composition of the present invention manufactured in accordance with that described in Example 1 but with the addition of coloring agent; these studies were conducted in selected conditions of temperature and humidity, which were 30° C. and 75% RH, and a temperature of 25° C. and 60% RH, showing that the pharmaceutical composition is stable according to the results exemplified in Table 3 up to 9 months, although the study was conducted under the regulatory guidelines for a longer period.

[1] = Determination of drugs content stability under extreme storage conditions; type: physicochemical
Description: The compositions from Example 1 were subjected to extreme storage conditions.
These conditions were maintained for a month, as follows: temperature 40° C. and 75% relative humidity (RH) and at temperature of 60° C. and 85% RH.
Then, the determination of the contents of each of the drugs was performed.

[2] = Dissolution profile of tablets; type: physicochemical
Description: Assessment of the composition of the present invention formulated into tablets was made, as described in Example 1 to determine their dissolution profiles, according to methods widely known in the industry, in order to evaluate the release of drugs.

[3] = patients with type 2 diabetes mellitus and proteinuria; cited from earlier work
clinical = settings: human
[4] = cited from earlier work
[5] = 0 months, 30° C./75% RH or 25° C./60% RH (not said which)

| Structure (SMILES) | Dissolution (Long-term stability test; 0 months) [%] | Content (Long-term stability test; [5]) [%] | Content (Long-term stability test; 1 month) [%] | Dissolution (Long-term stability test; 1 month) [%] | Content (Long-term stability test; 3 months) [%] | Dissolution (Long-term stability test; 3 months) [%] | Content (Long-term stability test; 6 months) [%] | Dissolution (Long-term stability test; 6 months) [%] | Content (Long-term stability test; 9 months) [%] | Dissolution (Long-term stability test; 9 months) [%] | Drug content ([1]; 1 Month 40° C./75% RH) [%] | Drug content ([1]; 1 Month 60° C./85% RH) [%] | Drug content ([1]; Initial) [%] | Average of % dissolved ([2]; 10 minutes) [%] | Average of % dissolved ([2]; 20 minutes) [%] | Average of % dissolved ([2]; 30 minutes) [%] | Average of % dissolved ([2]; 40 minutes) [%] | Average of % dissolved ([2]; 50 minutes) [%] | Average of % dissolved ([2]; 60 minutes) [%] | concentration at 0 h (clinical; in vivo) [ng/mL] | other results |
| --- | --- | --- | --- | --- | --- | --- | --- | --- | --- | --- | --- | --- | --- | --- | --- | --- | --- | --- | --- | --- | --- |
| CC(=O)Oc1ccccc1C(=O)O [Acetylsalicylic acid, acetylsalicylic acid] | 88.75 | 98.70 | 101.00 | 78.38 | 98.54 | 83.57 | 98.67 | 87.60 | 95.14 | 81.66 | 96.45 | 96.05 | 94.63 | 12 | 34 | 56 | 73 | 84 | 88 | – | – |
| CCCCc1nc(Cl)c(CO)n1Cc1ccc(-c2ccccc2-c2nn[nH]n2)cc1 [Losartan potassium, losartan potassium] | 103.01 | 100.32 | 99.24 | 95.28 | 98.50 | 96.38 | 99.85 | 92.77 | 95.33 | 91.66 | 96.31 | 96.64 | 95.88 | 60 | 100 | 102 | 102 | 103 | 104 | 0 | Progression of renal disease [3]: delays the progression of renal disease; concentration at 0.17 h (clinical; in vivo): 39.7 ng/mL; concentration at 0.33 h (clinical; in vivo): 137 ng/mL; concentration at 0.5 h (clinical; in vivo): 191 ng/mL; concentration at 0.75 h (clinical; in vivo): 176 ng/mL; concentration at 1 h (clinical; in vivo): 140 ng/mL; concentration at 2 h (clinical; in vivo): 113 ng/mL; concentration at 2.5 h (clinical; in vivo): 96.3 ng/mL; concentration at 3 h (clinical; in vivo): 81.5 ng/mL; concentration at 4 h (clinical; in vivo): 57.5 ng/mL; concentration at 6 h (clinical; in vivo): 38.7 ng/mL; concentration at 7 h (clinical; in vivo): 21.8 ng/mL; concentration at 8 h (clinical; in vivo): 12.4 ng/mL; concentration at 10 h (clinical; in vivo): 6.01 ng/mL; concentration at 12 h (clinical; in vivo): 3.06 ng/mL |
| CC[C@H](C)C(=O)O[C@H]1C[C@H](O)C=C2C=C[C@H](C)[C@H](CC[C@@H](O)C[C@@H](O)CC(=O)O)[C@H]21 [Pravastatin sodium, pravastatin sodium] | 99.79 | 98.89 | 98.04 | 94.77 | 95.83 | 98.09 | 98.77 | 95.97 | 99.97 | 93.37 | 98.72 | 98.23 | 99.76 | 61 | 104 | 105 | 106 | 107 | 108 | 0 | concentration at 0.17 h (clinical; in vivo): 2.8 ng/mL; concentration at 0.33 h (clinical; in vivo): 24.9 ng/mL; concentration at 0.5 h (clinical; in vivo): 72.6 ng/mL; concentration at 0.75 h (clinical; in vivo): 113 ng/mL; concentration at 1 h (clinical; in vivo): 110 ng/mL; concentration at 2 h (clinical; in vivo): 77 ng/mL; concentration at 2.5 h (clinical; in vivo): 58 ng/mL; concentration at 3 h (clinical; in vivo): 42.5 ng/mL; concentration at 4 h (clinical; in vivo): 25.8 ng/mL; concentration at 6 h (clinical; in vivo): 16.2 ng/mL; concentration at 7 h (clinical; in vivo): 9.73 ng/mL; concentration at 8 h (clinical; in vivo): 13.3 ng/mL; concentration at 10 h (clinical; in vivo): 6.53 ng/mL; concentration at 12 h (clinical; in vivo): 1.71 ng/mL; concentration at 24 h (clinical; in vivo): 1.27 ng/mL; Incidence of type 2 diabetes mellitus, lower than in placebo group ([4]; patients administered pravastatin vs placebo): 30%; Reduction of incidence of cerebral thrombosis ([4]; patients): ≤ 20% |
| O=C(O)c1ccccc1O [Salicylic acid] | – | – | – | – | – | – | – | – | – | – | – | – | – | – | – | – | – | – | – | – | concentration at 0 h (clinical; plasma, oral): 0 ng/mL; concentration at 0.17 h (clinical; plasma, oral): 1.09 ng/mL; concentration at 0.33 h (clinical; plasma, oral): 3.97 ng/mL; concentration at 0.5 h (clinical; plasma, oral): 8.78 ng/mL; concentration at 0.75 h (clinical; plasma, oral): 14.8 ng/mL; concentration at 1 h (clinical; plasma, oral): 21.1 ng/mL; concentration at 2 h (clinical; plasma, oral): 28.8 ng/mL; concentration at 2.5 h (clinical; plasma, oral): 36.5 ng/mL; concentration at 3 h (clinical; plasma, oral): 43.3 ng/mL; concentration at 4 h (clinical; plasma, oral): 49.2 ng/mL; concentration at 6 h (clinical; plasma, oral): 50.2 ng/mL; concentration at 7 h (clinical; plasma, oral): 45.4 ng/mL; concentration at 8 h (clinical; plasma, oral): 25.1 ng/mL; concentration at 10 h (clinical; plasma, oral): 12.5 ng/mL; concentration at 12 h (clinical; plasma, oral): 4.21 ng/mL; concentration at 24 h (clinical; plasma, oral): 1.16 ng/mL |
